Measurements: article PMC6268061, “Investigation of the Biological Properties of (Hetero)Aromatic Thiosemicarbazones” (Molecules, 2012)

Assays:
[1] = Lipophilicity determination using RP-HPLC (capacity factor, log k); type: physicochemical; conditions: C18, MeOH 55%/H2O 45%
Summary of the method: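 Isocratic RP-HPLC on a C18 column (5 μm, 4.6 × 250 mm), 55% MeOH/45% water at 0.9 mL/min, 30 °C, UV detection 210 nm. Dead time from KI; capacity factor k = (tR − tD)/tD, with log k taken as the lipophilicity index on log P scale.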

[2] = test system: photosynthetic electron transport (PET) in spinach chloroplasts; experiment: Inhibition of photosynthetic electron transport (PET) in spinach chloroplasts; type: biochemical, Spinacia oleracea L.; conditions: DCPIP photoreduction
Summary of the method: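 PET in spinach chloroplasts was followed spectrophotometrically as DCPIP photoreduction in pH 7.2 phosphate buffer with sucrose, MgCl2 and NaCl, at 30 mg/L chlorophyll, under halogen-lamp irradiation at 22 °C. Compounds were added in DMSO. IC50 is the molar concentration halving the rate relative to untreated control.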

Work on CN(C)C(=S)N/N=C/c1ccc(Br)cc1 [Compound 3m, (E)-2-(4-bromobenzylidene)-N,N-dimethylhydrazinecarbothioamide] yielded a log k [1] of 0.6784 and an IC50 [2] of 595 µM.

With NC(=S)N/N=C/c1ccc(Br)cc1 [Compound 3k, (E)-2-(4-Bromobenzylidene)hydrazinecarbothioamide] the log k [1] was 0.6580 and the IC50 [2] was 586 µM.

With CN(C)C(=S)N/N=C/c1ccc(Cl)c(Cl)c1 [Compound 3h, (E)-2-(3,4-Dichlorobenzylidene)-N,N-dimethylhydrazinecarbothioamide] the log k [1] was 0.7555 and the IC50 [2] was 329 µM.
